Data taken from US20210251991A1, “SUBSTITUTED 2,2'-BIPYRIMIDINYL COMPOUNDS, ANALOGUES THEREOF, AND METHODS USING SAME” (priority 2018, published 2021).
pEC50: −log10 of the molar value.

Tested on: HBsAg in HepG2.2.15 cells
Experiment: HBsAg assay: inhibition of HBsAg in HepG2.2.15 cells (chemiluminescence immunoassay of supernatant)
Type: cell-based, hepatitis B virus
Conditions: Hepatitis B virus, HepG2.2.15, 144 h, read-out: sAg EC50, HepG2.2.15 cells, supernatant collected at day 6 after exposure, HBsAg CLIA
Procedure, shortened: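 HepG2.2.15 cells treated with serially diluted compounds (0.5% DMSO), medium and compound refreshed after 2-3 days; supernatant HBsAg measured by chemiluminescence immunoassay at day 6. EC50 from dose-response curves; viability assessed in parallel by CellTiter-Glo.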

| Compound | pEC50 |
| --- | --- |
| CCC1c2cc(F)c(OC)cc2CN1c1ccnc(C(=O)O)n1 (stereo not shown) [Example 96, 4-(1-Ethyl-6-fluoro-5-methoxyisoindolin-2-yl)pyrimidine-2-carboxylic Acid] | 5.92 |
| CCC1c2cc(OC)c(OC)cc2CN1c1cnc(C(=O)O)nc1 (stereo not shown) [Example 97, 5-(1-Ethyl-5,6-dimethoxyisoindolin-2-yl)pyrimidine-2-carboxylic Acid] | 5.30 |
| CCC1c2cc(F)c(OC)cc2CN1c1cnc(C(=O)O)nc1 (stereo not shown) [Example 98, 5-(1-Ethyl-6-fluoro-5-methoxyisoindolin-2-yl)pyrimidine-2-carboxylic Acid] | 6.62 |
| CCC1c2cc(F)c(OC)cc2CN1c1cnc(C(=O)NS(C)(=O)=O)nc1 (stereo not shown) [Example 101, 5-(1-Ethyl-6-fluoro-5-methoxyisoindolin-2-yl)-N-(methylsulfonyl)pyrimidine-2-carboxamide] | 6.19 |
| CCC1c2cc(F)c(OC)cc2CN1c1ccnc(C(=O)NS(C)(=O)=O)n1 (stereo not shown) [Example 104, 4-(1-Ethyl-6-fluoro-5-methoxyisoindolin-2-yl)-N-(methylsulfonyl)pyrimidine-2-carboxamide] | 5.30 |
| CCC1c2cc(F)c(OC)cc2CN1c1cnc(C(=O)Nc2nccn2C)nc1 (stereo not shown) [Example 105, 5-(1-Ethyl-6-fluoro-5-methoxyisoindolin-2-yl)-N-(1-methyl-1H-imidazol-2-yl)pyrimidine-2-carboxamide] | 5.22 |
| CCC1c2cc(F)c(OC)cc2CN1c1cnc(C(=O)Nc2ccccn2)nc1 (stereo not shown) [Example 106, 5-(1-Ethyl-6-fluoro-5-methoxyisoindolin-2-yl)-N-(pyridin-2-yl)pyrimidine-2-carboxamide] | 5.70 |
| O=c1[nH]cccc1-c1nccc(N2CCc3cc(F)c(F)cc3C2)n1 [Example 111, 3-[4-(6,7-Difluoro-3,4-dihydro-1H-isoquinolin-2-yl)pyrimidin-2-yl]pyridin-2-ol] | 4.34 |
| CCC1c2ccc(F)c(F)c2CCN1c1cc(=O)c(C(=O)O)c[nH]1 (stereo not shown) [Example 112, 6-(1-Ethyl-5,6-difluoro-3,4-dihydro-1H-isoquinolin-2-yl)-4-hydroxy-pyridine-3-carboxylic Acid] | 4.96 |
| CCC1c2ccc(F)c(F)c2CCN1c1cnc(C(=O)O)nc1 (stereo not shown) [Example 113, 5-(1-Ethyl-5,6-difluoro-3,4-dihydro-1H-isoquinolin-2-yl)pyrimidine-2-carboxylic Acid] | 5.70 |
| CCC1c2cc(F)c(OC)cc2CCN1c1cnc(C(N)=O)nc1 (stereo not shown) [Example 118, 5-(1-Ethyl-7-fluoro-6-methoxy-3,4-dihydro-1H-isoquinolin-2-yl)pyrimidine-2-carboxamide] | 6.28 |
| CCC1c2cc(F)c(F)cc2CN1c1cnc(C(N)=O)nc1 (stereo not shown) [Example 119, 5-(1-Ethyl-5,6-difluoroisoindolin-2-yl)pyrimidine-2-carboxamide] | 4.38 |
| CCC1c2cc(F)c(OC)cc2CCN1c1ccnc(C(N)=O)n1 (stereo not shown) [Example 120, 4-(1-Ethyl-7-fluoro-6-methoxy-3,4-dihydro-1H-isoquinolin-2-yl)pyrimidine-2-carboxamide] | 4.85 |
| CCC1c2cc(F)c(F)cc2CN1c1ccnc(C(N)=O)n1 (stereo not shown) [Example 121, 4-(1-Ethyl-5,6-difluoroisoindolin-2-yl)pyrimidine-2-carboxamide] | 4.74 |
| CCC1c2ccccc2CCN1c1cnc2c(ccc3cccnc32)c1 (stereo not shown) [Example 122, 3-(1-Ethyl-3,4-dihydroisoquinolin-2(1H)-yl)-1,10-phenanthroline] | 5.92 |
| CC1c2ccc(F)c(F)c2CCN1c1cnc2c(ccc3cccnc32)c1 (stereo not shown) [Example 123, 3-(5,6-Difluoro-1-methyl-3,4-dihydroisoquinolin-2(1H)-yl)-1,10-phenanthroline] | 6.36 |
| CCC1c2ccccc2CCN1c1cnc2c(NC)nccc2c1 (stereo not shown) [Example 124, 3-(1-Ethyl-3,4-dihydroisoquinolin-2(1H)-yl)-N-methyl-1,7-naphthyridin-8-amine] | 4.66 |
| CCC1c2cc(F)c(OC)cc2CCN1c1cnc2c(=O)n(C)cnc2c1 (stereo not shown) [Example 125, 7-(1-Ethyl-7-fluoro-6-methoxy-3,4-dihydroisoquinolin-2(1H)-yl)-3-methylpyrido[3,2-d]pyrimidin-4(3H)-one] | 5.80 |
| CCC1c2ccc(F)c(F)c2OCCN1c1ccnc(-c2ncccn2)n1 (stereo not shown) [Example 126, 5-Ethyl-8,9-difluoro-4-(2-pyrimidin-2-ylpyrimidin-4-yl)-3,5-dihydro-2H-1,4-benzoxazepine] | 4.55 |
| CCC1c2cc(F)c(OC)cc2CCN1c1ccnc(-c2ncccn2)n1 (stereo not shown) [Example 127, 2-(2,2′-Bipyrimidin-4-yl)-1-ethyl-7-fluoro-6-methoxy-1,2,3,4-tetrahydroisoquinoline] | 7.70 |
| CCC1c2cc(F)c(OC)cc2CCN1c1cnc(-c2ncccn2)nc1 (stereo not shown) [Example 132, 2-(2,2′-Bipyrimidin-5-yl)-1-ethyl-7-fluoro-6-methoxy-1,2,3,4-tetrahydroisoquinoline] | 8.15 |
| CCC1c2cc(F)c(OC)cc2CCCN1c1ccnc(-c2ncccn2)n1 (stereo not shown) [Example 135, 2-([2,2′-Bipyrimidin]-4-yl)-1-ethyl-8-fluoro-7-methoxy-2,3,4,5-tetrahydro-1H-benzo[c]azepine] | 6.00 |
